From patent US10106542B2, “Substituted 6,7-dihydropyrazolo[1,5-a]pyrazines as negative allosteric modulators of mGluR2 receptors” (Janssen Pharmaceutica NV, priority 2013, dated 2018) come the findings set out here.

Structures are written as SMILES.

This series in a line: Ro-4-1284 interaction test in rats. It counts as in vivo, rat. The settings on record: rat, in vivo, po; read-out: ED50 effect on body temperature immediately before the injection of Ro-4-1284. As to the method: 5) Ro-4-1284 Interaction Test in Rats The relative ability of Co. No. 1 to increase palpebral opening was also studied in rats challenged with another monoamines depleting agent, viz. Ro-4-1284 (1.25 mg/kg, s.c.). Effects on body temperature immediately before the injection of Ro-4-1284 were also measured. The cumulative palpebral opening score (every 5 min over a 1-h period) was used for evaluation. The median cumulative palpebral opening in solvent-pretreated control animals (n=70) was 18; a scores >25 occurred in only 1.4% of these control animals and was adopted as all-or-none criterion for drug-induced reversal of the Ro-4-1284-induced palpebral ptose. Co.

Turning to `Cc1cc(-c2cnn3c2C(=O)N(c2ccc(C(F)(F)F)cc2)C[C@@H]3C)ccn1` [compound 1, (7S)-7-Methyl-3-(2-methylpyridin-4-yl)-5-[4-(trifluoromethyl)phenyl]-6,7-dihydropyrazolo[1,5-a]pyrazin-4(5H)-one], the ED50 (as a rule, the midpoint of the dose-response relation) was > 10 mg/kg.
